Results from patent US10875829B1, “Azetidine derivatives useful as modulators of cortical catecholaminergic neurotransmission” (Integrative Research Laboratories Sweden AB, priority 2016, dated 2020).
Structures can show the parent of a compound that is named as a salt.

Tested on: SERT, NET and/or DAT
Assay: Radioligand binding assays at the monoamine transporters, general statements
Parameters: species or system human
Settings: concentration of each tested compound 10 μM
From the text: A serotonin-norepinephrine-dopamine reuptake inhibitor (SNDRI), also known as a triple reuptake inhibitor (TRI), is a type of drug that acts as a combined reuptake inhibitor of the monoamine neurotransmitters serotonin, norepinephrine, and dopamine. It does this by concomitantly inhibiting the serotonin transporter (SERT), norepinephrine transporter (NET), and dopamine transporter (DAT), respectively. Inhibition of the reuptake of these neurotransmitters increases their extracellular concentrations and, therefore, results in an increase in serotonergic, adrenergic, and dopaminergic neurotransmission across the brain. However, the use of triple re-uptake inhibitors (especially the inhibition of DAT) in humans are of potential concern due to abuse liability. Cocaine is the most well-known triple-uptake inhibitor and is widely encountered as a drug of abuse. […] One assay to measure affinity of said compounds as described herein may be the percent inhibition from radioligand binding assay using cells expressing human transporters and receptors (Table 5), wherein the concentration of each tested compound in such assay is 10 μM. Alternatively other assays known to the skilled person may be used to measure the affinity of said compounds, wherein the concentration of each tested compound in such assay is 10 μM.
Each compound was tested in a single concentration at 1.0 E-5 M and in duplicate. […]

affinity to SERT, NET and/or DAT (percent inhibition): higher than 75%
Structure (SMILES): Clc1ccc(OC2CNC2)cc1Cl [Reference Compound, 3-(3,4-dichlorophenoxy)azetidine hydrochloric acid salt, reference compound]
